Source: patent US20240228482A1, “COMPOUNDS, COMPOSITIONS AND METHODS OF TREATING CANCER” (HOTSPOT THERAPEUTICS, INC., priority 2021, published 2024)

Molecular target: T1, CBL-B (Homo sapiens, UniProt Q13191)
T1 construct: GST
Assay: CBL-B TR-FRET IC50 screening (E1/E2 ubiquitination, Biotin-Ubiquitin, Anti GST-Tb donor / Streptavidin-d2 acceptor)
Format: biochemical
Conditions: second part of Table 2 (head 'Patent Cmpd No / Updated Activity'); same CBL-B TR-FRET IC50 bins A-F; read-out: Updated Activity

T1 sequence (Q13191 whole entry): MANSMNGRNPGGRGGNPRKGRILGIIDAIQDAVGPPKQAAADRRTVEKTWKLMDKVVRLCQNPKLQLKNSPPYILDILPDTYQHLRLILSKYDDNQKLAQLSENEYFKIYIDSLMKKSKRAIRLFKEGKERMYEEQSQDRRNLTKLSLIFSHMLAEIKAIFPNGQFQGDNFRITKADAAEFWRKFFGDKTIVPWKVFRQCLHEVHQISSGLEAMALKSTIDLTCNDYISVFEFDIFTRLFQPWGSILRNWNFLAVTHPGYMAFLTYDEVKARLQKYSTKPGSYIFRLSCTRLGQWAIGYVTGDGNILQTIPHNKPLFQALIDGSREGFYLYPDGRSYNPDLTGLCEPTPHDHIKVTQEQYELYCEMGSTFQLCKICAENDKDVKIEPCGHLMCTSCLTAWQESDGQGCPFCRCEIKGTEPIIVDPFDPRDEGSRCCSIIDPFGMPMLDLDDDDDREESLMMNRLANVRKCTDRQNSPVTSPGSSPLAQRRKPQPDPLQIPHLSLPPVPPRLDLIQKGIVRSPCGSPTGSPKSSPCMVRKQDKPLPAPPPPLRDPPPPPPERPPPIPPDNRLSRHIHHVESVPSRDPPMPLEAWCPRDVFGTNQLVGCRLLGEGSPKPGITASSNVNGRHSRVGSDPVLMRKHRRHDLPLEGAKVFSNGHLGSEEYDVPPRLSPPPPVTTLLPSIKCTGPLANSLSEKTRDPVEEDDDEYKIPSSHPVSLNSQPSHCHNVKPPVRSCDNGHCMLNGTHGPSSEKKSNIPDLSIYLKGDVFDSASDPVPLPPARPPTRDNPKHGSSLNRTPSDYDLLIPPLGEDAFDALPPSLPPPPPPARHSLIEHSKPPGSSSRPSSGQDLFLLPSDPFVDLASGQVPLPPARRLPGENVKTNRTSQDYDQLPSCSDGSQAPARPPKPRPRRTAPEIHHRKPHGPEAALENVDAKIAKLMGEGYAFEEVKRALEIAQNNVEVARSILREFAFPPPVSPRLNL

| IC50 | Structure (SMILES) |
| --- | --- |
| < 0.1 µM | [2H]C([2H])(c1cc(C(F)(F)F)c2cn(-c3cccc([C@H](c4nncn4C)C4CCC4)c3)c(=O)n2c1)N1CCC(C)(F)CC1 [Compound 526] |
| < 0.1 µM | [2H]C([2H])(c1cc(C(F)(F)F)c2cn(-c3cccc([C@H](c4nncn4C)C4CCC4)c3)c(=O)n2c1)N1CCO[C@H](C)C1 [Compound 527] |
| < 0.1 µM | Cn1cnnc1[C@@H](c1cccc(-n2cc3c(C(F)(F)F)cc(CN4CCC5CC54)cn3c2=O)c1)C1CCC1 (some centres unmarked) [Compound 528] |
| 0.301 to 1 µM | Cn1cnnc1[C@H](c1cc(-c2cnn[nH]2)cc(-n2cc3c(C(F)(F)F)cccn3c2=O)c1)C1CCC1 [Compound 535] |
| > 10 µM | Cn1cnnc1[C@@H](c1cc(-c2cnn[nH]2)cc(-n2cc3c(C(F)(F)F)cccn3c2=O)c1)C1CCC1 [Compound 536] |
| < 0.1 µM | Cn1cnnc1[C@@H](c1cccc(-n2cc3c(C(F)(F)F)cc(CN4CCCS4(=O)=O)cn3c2=O)c1)C1CCC1 [Compound 541] |
| < 0.1 µM | Cn1cnnc1[C@@H](c1cccc(-n2cc3c(C(F)(F)F)cc(CN4CCNS4(=O)=O)cn3c2=O)c1)C1CCC1 [Compound 542] |
| < 0.1 µM | Cn1cnnc1[C@@H](c1cccc(-n2cc3c(C(F)(F)F)cc(CN4CCCCS4(=O)=O)cn3c2=O)c1)C1CCC1 [Compound 543] |
| < 0.1 µM | Cn1cnnc1[C@@H](c1cccc(-n2cc3c(C(F)(F)F)cc(CN4CCCNS4(=O)=O)cn3c2=O)c1)C1CCC1 [Compound 544] |
| < 0.1 µM | Cn1cnnc1[C@@H](c1cccc(-n2cc3c(C(F)(F)F)cc(CN4CCC5(CCOC5=O)CC4)cn3c2=O)c1)C1CCC1 [Compound 545] |
| < 0.1 µM | [2H]C([2H])(c1cc(C(F)(F)F)c2cn(-c3cccc([C@H](c4nncn4C)C4COC4)c3)c(=O)n2c1)N1CCC[C@H](C)C1 [Compound 546] |
| < 0.1 µM | C[C@@H]1CCN1Cc1cc(C(F)(F)F)c2cn(-c3cccc([C@H](c4nncn4C)C4CCC4)c3)c(=O)n2c1 [Compound 547] |
| < 0.1 µM | COC[C@H]1CCN1Cc1cc(C(F)(F)F)c2cn(-c3cccc([C@H](c4nncn4C)C4CCC4)c3)c(=O)n2c1 [Compound 548] |
| < 0.1 µM | Cn1cnnc1[C@@H](c1cccc(-n2cc3c(C(F)(F)F)cc(CN4CC(C#N)C4)cn3c2=O)c1)C1CCC1 [Compound 549] |
| < 0.1 µM | C[C@H]1CCCN(Cc2cc(C(F)(F)F)c3cn(-c4csc([C@@H](c5nncn5C)C5CCC5)c4)c(=O)n3c2)C1 [Compound 550_P1] |
| < 0.1 µM | C[C@H]1CCCN(Cc2cc(C(F)(F)F)c3cn(-c4csc([C@H](c5nncn5C)C5CCC5)c4)c(=O)n3c2)C1 [Compound 550_P2] |
| < 0.1 µM | Cn1cnnc1[C@@H](c1cccc(-n2cc3c(C(F)(F)F)cc(CN4NC(=O)CC45COC5)cn3c2=O)c1)C1CCC1 [Compound 561] |
| < 0.1 µM | CN1CCCN(Cc2cc(C(F)(F)F)c3cn(-c4cccc([C@H](c5nncn5C)C5CCC5)c4)c(=O)n3c2)S1(=O)=O [Compound 562] |
| < 0.1 µM | C[C@H]1CCC[N+]([O-])(Cc2cc(C(F)(F)F)c3cn(-c4cccc([C@H](c5nncn5C)C5CCC5)c4)c(=O)n3c2)C1 (some centres unmarked) [Compound 563] |
| < 0.1 µM | Cn1cnnc1[C@@H](c1cccc(-n2cc3c(C(F)(F)F)cc(CN4CC(C)(C#N)C4)cn3c2=O)c1)C1CCC1 [Compound 564] |
| > 10 µM | [2H]C([2H])(c1cc(C(F)(F)F)c2cn(-c3cccc([C@@H](c4nncn4C)C4COC4)c3)c(=O)n2c1)N1CCC[C@H](C)C1 [Compound 565_P1] |
| < 0.1 µM | C[C@H]1CCN1Cc1cc(C(F)(F)F)c2cn(-c3cccc([C@H](c4nncn4C)C4CCC4)c3)c(=O)n2c1 [Compound 565_P2] |
| > 10 µM | C[C@H]1CCCN(Cc2cc(C(F)(F)F)c3cn(-c4cccc([C@@H](c5n[nH]cc5C#N)C5CCC5)c4)c(=O)n3c2)C1 [Compound 566] |
| < 0.1 µM | C[C@H]1CCCN(Cc2cc(C(F)(F)F)c3cn(-c4cccc([C@H](c5n[nH]cc5C#N)C5CCC5)c4)c(=O)n3c2)C1 [Compound 567] |
| < 0.1 µM | Cn1cnnc1[C@@H](c1cccc(-n2cc3c(C(F)(F)F)cc(CN4CCC[C@](C)(O)C4)cn3c2=O)c1)C1CCC1 [Compound 568] |

| IC50 | Structure (SMILES) |
| --- | --- |
| < 0.1 µM | Cn1cnnc1[C@@H](c1cccc(-n2cc3c(C(F)(F)F)cc(CN4CCN(S(C)(=O)=O)CC4)cn3c2=O)c1)C1CCC1 [Compound 572] |
| < 0.1 µM | CCS(=O)(=O)N(C)Cc1cc(C(F)(F)F)c2cn(-c3cccc([C@H](c4nncn4C)C4CCC4)c3)c(=O)n2c1 [Compound 590] |
| < 0.1 µM | CCN(Cc1cc(C(F)(F)F)c2cn(-c3cccc([C@H](c4nncn4C)C4CCC4)c3)c(=O)n2c1)S(C)(=O)=O [Compound 591] |
| < 0.1 µM | CCN(Cc1cc(C(F)(F)F)c2cn(-c3cccc([C@H](c4nncn4C)C4CCC4)c3)c(=O)n2c1)S(=O)(=O)CC [Compound 592] |
| < 0.1 µM | COCCN(Cc1cc(C(F)(F)F)c2cn(-c3cccc([C@H](c4nncn4C)C4CCC4)c3)c(=O)n2c1)S(C)(=O)=O [Compound 593] |
| < 0.1 µM | COCCS(=O)(=O)N(C)Cc1cc(C(F)(F)F)c2cn(-c3cccc([C@H](c4nncn4C)C4CCC4)c3)c(=O)n2c1 [Compound 594] |
| < 0.1 µM | CN(CCC(=O)O)Cc1cc(C(F)(F)F)c2cn(-c3cccc([C@H](c4nncn4C)C4CCC4)c3)c(=O)n2c1 [Compound 595] |
| < 0.1 µM | COC(=O)CCN(C)Cc1cc(C(F)(F)F)c2cn(-c3cccc([C@H](c4nncn4C)C4CCC4)c3)c(=O)n2c1 [Compound 596] |
| 3 to 10 µM | [2H]C([2H])(c1cc(C(F)(F)F)c2cn(-c3cccc([C@H](c4nncn4C)C4CCC4)c3)c(=O)n2c1)N1CCC[C@H](C(F)(F)F)C1 [Compound 597_P1] |
| < 0.1 µM | [2H]C([2H])(c1cc(C(F)(F)F)c2cn(-c3cccc([C@H](c4nncn4C)C4CCC4)c3)c(=O)n2c1)N1CCC[C@@H](C(F)(F)F)C1 [Compound 597_P2] |
| < 0.1 µM | CN1CCN(Cc2cc(C(F)(F)F)c3cn(-c4cccc([C@H](c5nncn5C)C5CCC5)c4)c(=O)n3c2)S1(=O)=O [Compound 608] |
| < 0.1 µM | Cn1cnnc1[C@@H](c1cccc(-n2cc3c(C(F)(F)F)cc(CN4CCC5(CCNC5=O)CC4)cn3c2=O)c1)C1CCC1 [Compound 609] |
| < 0.1 µM | C[C@H](c1cc(C(F)(F)F)c2cn(-c3cccc([C@H](c4nncn4C)C4CCC4)c3)c(=O)n2c1)N(C)Cc1cncs1 [Compound 610_P1] |
| < 0.1 µM | C[C@@H](c1cc(C(F)(F)F)c2cn(-c3cccc([C@H](c4nncn4C)C4CCC4)c3)c(=O)n2c1)N(C)Cc1cncs1 [Compound 610_P2] |
| 0.1 to 0.3 µM | COCCn1ccnc1-c1cc(C(F)(F)F)c2cn(-c3cccc(C4(c5nncn5C)CCC4)c3)c(=O)n2c1 [Compound 611] |
| > 10 µM | C[C@@H]1CN(Cc2cc(C(F)(F)F)c3cn(-c4cccc([C@@H](c5nncn5C)C5CC5)c4)c(=O)n3c2)CCO1 [Compound 612_P1] |
| < 0.1 µM | C[C@@H]1CN(Cc2cc(C(F)(F)F)c3cn(-c4cccc([C@H](c5nncn5C)C5CC5)c4)c(=O)n3c2)CCO1 [Compound 612_P2] |
| < 0.1 µM | CN1CCC2(CN(Cc3cc(C(F)(F)F)c4cn(-c5cccc([C@H](c6nncn6C)C6CCC6)c5)c(=O)n4c3)C2)C1=O [Compound 622] |
| 0.301 to 1 µM | C[C@H]1CCCN(Cc2cc(C(F)(F)F)c3cn(-c4cccc(C5(c6nncs6)CC(C)(C)C5)c4)c(=O)n3c2)C1 [Compound 624] |
| < 0.1 µM | Cn1cnnc1[C@@H](c1cccc(-n2cc3c(C(F)(F)F)cc(CN4CCCC(n5cnnc5)C4)cn3c2=O)c1)C1CCC1 (some centres unmarked) [Compound 625] |
| < 0.1 µM | C[C@H]1CCCN(Cc2cc(C(F)(F)F)c3cn(-c4cccc(C5(c6nncs6)CCC5)c4)c(=O)n3c2)C1 [Compound 626] |
| < 0.1 µM | C[C@H]1CCCN(Cc2cc(C(F)(F)F)c3cn(-c4cc([C@@H](c5nncn5C)C5CCC5)ccn4)c(=O)n3c2)C1 [Compound 627_P1] |
| 1 to 3 µM | C[C@H]1CCCN(Cc2cc(C(F)(F)F)c3cn(-c4cc([C@H](c5nncn5C)C5CCC5)ccn4)c(=O)n3c2)C1 [Compound 627_P2] |
| < 0.1 µM | C[C@H]1CCCN(Cc2cc(C(F)(F)F)c3cn(-c4cncc([C@@H](c5nncn5C)C5CCC5)c4)c(=O)n3c2)C1 [Compound 628_P1] |
| 3 to 10 µM | C[C@H]1CCCN(Cc2cc(C(F)(F)F)c3cn(-c4cncc([C@H](c5nncn5C)C5CCC5)c4)c(=O)n3c2)C1 [Compound 628_P2] |
